Literature values in patent US6372499B1, “Polymeric complexes for the transfection of nucleic acids, with residues causing the destabilisation of cell membranes” (I.D.M. Immuno-Designed Molecules, priority 1996, dated 2002).

Tests used:
[1] = persons, daily dose of 300 mg per day, after a few days
cells = conditions: after a few hours

plasma concentration [1]: about 0.7 μM
intracellular concentration relative to the concentration in the medium (cells): more than 100 times higher
intracellular concentration (cells; initial concentration 100 μM): exceed 10 mM
Compound: CCN(CC)CCCC(C)Nc1ccnc2cc(Cl)ccc12 (stereo not drawn) [chloroquine]
